Results from US20080113927A1, “Indolopyrrolocarbazole derivatives and anti-tumor agent” (priority 2003, published 2008).

Key:
[1] = test system: Human lung cancer cells LX-1; assay: Anti-tumor effect on LX-1 solid tumor transplanted subcutaneously in nude mice; type: in vivo, nude mice (Balb/c-nu/nu); conditions: LX-1 in nude mice
From the text: Method for Determining the Effects of the Agent on Animals
Female nude mice of 5 weeks of age (Balb/c-nu/nu) were obtained from Clea Japan, Inc. Human lung cancer cells LX-1 were obtained from the Japanese Foundation for Cancer Research Institute.
The synthesis of the control compound is described in JP-A No. 10-245390, Example 14.
The cancer cells were transplanted subcutaneously to nude mice so that solid cancer can be maintained. The solid cancer was sliced into 3 mm cubic blocks in physiological saline under ice cooling. One of the blocks was transplanted subcutaneously to a nude mouse to be used in experiment (Day 1). The cancer cells were grown subcutaneously in the mouse to form a tumor mass. The size of the mass was measured with a lapse of time, and when the volume reached 0.2 cm^3 or more (approximation by volume=major axis×minor axis^2÷2), administration of the drug was started. The drug was dissolved in 5% glucose solution and administered intravenously at the tail successively twice a week for 2 weeks (total 4 times). Two weeks after the administration, the percentage (T/C%) of the tumor volume (T) was calculated from the tumor volume (C) in the control group and that (T) in the test group as a tumor volume ratio.

[2] = test system: MKN-45 (human stomach cancer cells); assay: Cell-growth inhibitory activity against MKN-45 (WST-8 method); type: cell-based; conditions: 72 h, MKN-45 cells, 3 days incubation, read-out: 50% tumor growth inhibiting activity (IC50)
Description: Method for Determining the Effects of the Agent on Cells
Fetal calf serum (FCS) was obtained from Molgate and the DMEM culture medium from Asahi Technoglass Inc.
Human gastric cancer cell MKN-45 was obtained from the IBL Co., Ltd.
The cells were suspended in 10% FCS-DMEM medium and the suspension was distributed in a 96-well plastic plate in the amount of 1000 cells/50 microliter/well. The plate was incubated at 37° C. in 5% CO2-95% air overnight. Each drug was dissolved in dimethylsulfoxide or a suitable solvent by serial dilution and distributed in the wells at 50 microliters per well in which the cells had been added. The plate was incubated at 37° C. in 5% CO2-95% air for 3 days. The growth of the cultured cells was measured by the WST-8 method (H. Tominaga et al., Anal. Commun., 36, 47-50 (1999)). In the WST-8 method, 10 microliter of WST-8 reagent solution was added, and then incubated at 37° C. for 1 to 6 hours. After stirring the plate, the resulting formazan was quantitatively analyzed by colorimetry to determine the inhibition rate of the drug. Thus, 50% inhibitory concentration (IC50) for the growth was determined for each compound.

For `O=C1c2c(c3c4ccc(O)cc4n(C4OC(CO)C(O)C(O)C4O)c3c3[nH]c4cc(O)ccc4c23)C(=O)N1NCc1ccncc1` (stereo not shown) [Example 1], the “Anti-tumor activity against human lung cancer cells compared with the control compound” value ([1]; comparison from Table 2) was “markedly a stronger anti-tumor activity”, the “Ratio of tumor volume Treated/Control (%)” value ([1]; i.v. twice a week for 2 weeks, total dose 1200 mg/m^2, two weeks after the administration) was 1% (1200 mg/m^2) and the IC50 [2] was 0.71 nM.
Work on `O=C1c2c(c3c4ccc(O)cc4n(C4OC(CO)C(O)C(O)C4O)c3c3[nH]c4cc(O)ccc4c23)C(=O)N1NCc1ccccn1` (stereo not shown) [Example 2] yielded an IC50 [2] of 1.4 nM.
With `O=C1c2c(c3c4ccc(O)cc4n(C4OC(CO)C(O)C(O)C4O)c3c3[nH]c4cc(O)ccc4c23)C(=O)N1NCc1cccnc1` (stereo not shown) [Example 3] the IC50 [2] was 0.95 nM.
For `O=C1c2c(c3c4ccc(O)cc4n(C4OC(CO)C(O)C(O)C4O)c3c3[nH]c4cc(O)ccc4c23)C(=O)N1NCCCc1cccnc1` (stereo not shown) [Example 4], the IC50 [2] was 6.3 nM.
`O=C1c2c(c3c4ccc(O)cc4n(C4OC(CO)C(O)C(O)C4O)c3c3[nH]c4cc(O)ccc4c23)C(=O)N1NCc1ccoc1` (stereo not shown) [Example 5] was tested, and the IC50 [2] was 2.8 nM.
Compound `O=C1c2c(c3c4ccc(O)cc4n(C4OC(CO)C(O)C(O)C4O)c3c3[nH]c4cc(O)ccc4c23)C(=O)N1NCc1ccco1` (stereo not shown) [Example 6] has an IC50 [2] of 5 nM.
`O=C1c2c(c3c4ccc(O)cc4n(C4OC(CO)C(O)C(O)C4O)c3c3[nH]c4cc(O)ccc4c23)C(=O)N1NCc1ccsc1` (stereo not shown) [Example 7] showed an IC50 [2] of 2.7 nM.
`O=C1c2c(c3c4ccc(O)cc4n(C4OC(CO)C(O)C(O)C4O)c3c3[nH]c4cc(O)ccc4c23)C(=O)N1NCc1cccs1` (stereo not shown) [Example 8] gave an IC50 [2] of 4.1 nM.
